The test relates to HRP-labeled IgG. Put plainly: PEI-PEG-Peptide antibody binding and free peptide competition (ELISA). The conditions noted are these: peptide 0 added after antibody, lowering competition (FIG. 1C). As for the experimental part:
PPP0 (Pei-PEG-Peptide0) was diluted into the coating buffer (1×TBS, pH7.2) (final concentration: 30 μg/ml) and immediately coated 96-well microplate with 100 µl per well of the diluted PPP0 solution. The plates were sealed and incubated overnight at room temperature.
Wells were aspirated and washed with 300 µl of washing buffer (1×TBS containing 0.1% Tween 20, pH 7.4). The procedure was repeated two more times for a total of three washes
In the next step plates were blocked by adding 300 µl 1% BSA in TBS and incubating for two hours.
[…] Next, 50 µl of HRP-labeled IgG (˜3 ug/ml in binding buffer) was added to each of the wells. The plate was shaken on a horizontal microplate shaker at 500±50 rpm for 10 rain and then incubate at 37° C. for 2 hours. After incubation, wells were washed 5 times with washing buffer to remove the competitors and HRP-IgG.
150 µl per well of freshly prepared substrate solution was added and incubated for 25-30 min at room temperature. The reaction was stopped by adding 70 µl of 2NH2SO4 into each well. Plate was gently tapped to ensure a thorough mixing. Optical density of each well was measured immediately, using a microplate reader set to 450 nm. Data was analyzed GraphPad Prism software.
(In general: ELISA stands for enzyme-linked immunosorbent assay.)

Experimental findings from patent US20110312877A1, “ENGINEERED TUNABLE NANOPARTICLES FOR DELIVERY OF THERAPEUTICS, DIAGNOSTICS, AND EXPERIMENTAL COMPOUNDS AND RELATED COMPOSITIONS FOR THERAPEUTIC USE” (APARNA BIOSCEIENCES, priority 2008, published 2011) are described below.

Where no end group is shown, it is not given here.

With “PPP: Fc binding peptide (HWRGWVC)-PEG-PEI conjugate made with SCM-PEG-Mal (3400) and PEI 2K (also: conjugated to PEG(3400)-PEI 2K via SCM-PEG-Mal, site not given here)”, the “off-rate for antibody dissociation from PPP” value is reported as “long”.
